A word on the IC50: it is the point on the concentration scale where inhibition reaches its midpoint.

Results on 5 molecules are retold here after BindingDB's records for doi:10.1016/j.bmcl.2011.11.051 (The Ohio State University, 2012).

Neuronal acetylcholine receptor subunit alpha-4/beta-2, sequence (P43681 whole entry): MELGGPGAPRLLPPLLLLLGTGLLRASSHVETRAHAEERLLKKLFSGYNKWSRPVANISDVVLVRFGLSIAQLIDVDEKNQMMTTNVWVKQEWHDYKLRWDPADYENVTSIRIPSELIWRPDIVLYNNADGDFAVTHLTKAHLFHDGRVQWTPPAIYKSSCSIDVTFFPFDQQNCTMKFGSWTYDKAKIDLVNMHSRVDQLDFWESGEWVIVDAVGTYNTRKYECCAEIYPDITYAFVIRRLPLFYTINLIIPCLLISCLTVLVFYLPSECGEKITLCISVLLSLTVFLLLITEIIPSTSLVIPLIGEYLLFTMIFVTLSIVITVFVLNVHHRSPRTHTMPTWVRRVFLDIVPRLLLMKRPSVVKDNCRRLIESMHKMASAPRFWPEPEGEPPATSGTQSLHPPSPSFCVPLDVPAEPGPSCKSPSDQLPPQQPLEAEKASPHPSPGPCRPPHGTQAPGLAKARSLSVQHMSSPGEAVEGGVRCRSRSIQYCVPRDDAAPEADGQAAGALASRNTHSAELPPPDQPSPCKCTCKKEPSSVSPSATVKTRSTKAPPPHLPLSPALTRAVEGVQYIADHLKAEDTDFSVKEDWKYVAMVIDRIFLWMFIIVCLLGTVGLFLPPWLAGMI
Neuronal acetylcholine receptor subunit alpha-4/beta-2, sequence (P17787 whole entry): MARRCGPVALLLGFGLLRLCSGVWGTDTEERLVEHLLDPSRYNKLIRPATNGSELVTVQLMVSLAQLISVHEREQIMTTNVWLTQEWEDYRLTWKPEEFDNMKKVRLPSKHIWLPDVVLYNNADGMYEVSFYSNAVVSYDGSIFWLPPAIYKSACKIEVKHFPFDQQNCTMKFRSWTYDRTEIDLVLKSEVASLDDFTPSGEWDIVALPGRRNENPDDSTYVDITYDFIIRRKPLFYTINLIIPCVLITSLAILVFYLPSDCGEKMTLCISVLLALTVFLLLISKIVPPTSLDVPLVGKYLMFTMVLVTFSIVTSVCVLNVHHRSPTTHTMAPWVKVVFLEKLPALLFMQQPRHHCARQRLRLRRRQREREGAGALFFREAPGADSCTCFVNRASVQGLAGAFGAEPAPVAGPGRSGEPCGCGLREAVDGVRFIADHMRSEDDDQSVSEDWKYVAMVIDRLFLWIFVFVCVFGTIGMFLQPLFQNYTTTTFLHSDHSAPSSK

The assay has as its target Neuronal acetylcholine receptor subunit alpha-4/beta-2 (Homo sapiens, UniProt P43681+P17787). Description: Antagonist activity at human nAChR alpha4/beta2 receptor expressed in HEK ts201 cells assessed as calcium accumulation by fluorescence analysis.
With `O=C(OCC1=CCCN(CCCc2ccccc2)C1)c1ccccc1-n1c(O)cc(Cc2ccccc2)c1O`, the IC50 worked out at 5.13 µM.

For `O=C(OCC1CCCN(CCc2ccccc2)C1)c1ccccc1-n1c(O)cc(Cc2ccccc2)c1O` (stereo not given), the IC50 is 4.47 µM.

In the case of `O=C(OCC1CCCN(CCCc2ccccc2)C1)c1ccccc1-n1c(O)cc(CCc2ccccc2)c1O` (stereo not given), the IC50 was 5.13 µM.

With `CCN1CCCC(COC(=O)c2ccccc2-n2c(O)cc(Cc3ccccc3)c2O)C1` (stereo not given), the IC50 is 4.47 µM.

As for `Cc1cc(O)n(-c2ccccc2C(=O)OC[C@@H]2CCCN(CCCc3ccccc3)C2)c1O`, the IC50 turned out to be 8.91 µM.
